Several values for one entry are separate records, joined by “and”; a condition that tells them apart may be missing. Identical values can stand only once. Like-named read-outs stand apart in the source and are kept apart here.

Usually IC50 stands for the concentration needed to halve the response being measured. What is called IC90 is the concentration needed for an effect of 90%.

For series [1], the system named is A/Brisbane/10/2007 (H3N2). Briefly: microbe, parasite or virus in culture. The settings on record: Influenza A virus, H3N2, MDCK, read-out: IC50, Neutral Red Uptake Assay.
Series [2] deals with A/Brisbane/10/2007 (H3N2). Briefly: microbe, parasite or virus in culture. The settings on record: Influenza A virus, H3N2, MDCK, read-out: IC50, Visual Assay.
Series [3] relates to B/Florida/4/2006.
Series [4] has as its system A/Hong Kong/213/2003H (A/Hong Kong/213/2003 × Ann Arbor/6/60 hybrid).
The test system of series [5] is Influenza A/Vietnam/1203/2004 (H5N1). The series is described as follows: microbe, parasite or virus in culture. The settings on record: H5N1, MDCK, read-out: IC90, VYR Assay. Type of series: cell-based.
Series [6] has as its system A/Duck/MN/1525/81 (H5N1).
The test system of series [7] is B/Florida/4/2006. This is another data set of the same source.
Series [8] has as its system A/Gull/PA/4175/83 (H5N1). Briefly: microbe, parasite or virus in culture. The settings on record: Influenza A virus, H5N1, MDCK, read-out: IC50, Visual Assay.
Series [9] has as its system Influenza A/Vietnam/1203/2004 (H5N1). The series is described as follows: microbe, parasite or virus in culture. The settings on record: H5N1, MDCK, read-out: IC50, Neutral Red Uptake Assay.
Series [10] has the same test system.
For series [11] the following is noted: mouse, in vivo.
The test system of series [12] is Influenza A/Vietnam/1203/2004 (H5N1). This is another data set of the same source.
The test system of series [13] is A/Duck/MN/1525/81 (H5N1). The series is described as follows: microbe, parasite or virus in culture. The settings on record: Influenza A virus, H5N1, MDCK, read-out: IC50, Neutral Red Uptake Assay.
Series [14] is described as follows: in vitro. Conditions: dog, CC50 values, range, neutral red uptake assay.
The subject of series [15] is Influenza A/Vietnam/1203/2004 (H5N1). Briefly: microbe, parasite or virus in culture. The settings on record: H5N1, MDCK, read-out: IC50, Visual Assay.
For series [16], the system named is A/Vietnam/1203/04H (A/Vietnam/1203/04 × Ann Arbor/6/60 hybrid). The series is described as follows: microbe, parasite or virus in culture. The settings on record: Influenza A virus, MDCK, read-out: IC90, VYR Assay. Type of series: cell-based.
Series [17] shares this test system.
The test system of series [18] is influenza A/CA/07/2009 (H1N1). The series is described as follows: microbe, parasite or virus in culture. Conditions: H1N1, MDCK, read-out: IC50, Visual Assay.
The test system of series [19] is A/Duck/MN/1525/81 (H5N1). Briefly: microbe, parasite or virus in culture. Conditions: Influenza A virus, H5N1, MDCK, read-out: IC50, Visual Assay.
Series [20] concerns B/Florida/4/2006. The series is described as follows: microbe, parasite or virus in culture. The settings on record: Influenza B virus, MDCK, read-out: IC90, VYR Assay. The series is classed as cell-based.
Series [21] has as its system A/Hong Kong/213/2003 (H5N1). The series is described as follows: microbe, parasite or virus in culture. Conditions: Influenza A virus, H5N1, MDCK, read-out: IC90, VYR Assay. Type of series: cell-based.
Series [22] has as its system A/Thailand/2(Kan-1)/16/2004 (H5N1).
In series [23] the test system is influenza A/CA/04/09 pandemic H1N1 virus. More on the design: species or system BALB/c mice. The settings on record: mouse, in vivo.
The subject of series [24] is A/Hong Kong/213/2003 (H5N1).
Series [25] deals with influenza virus. The settings on record: in vivo; cited from earlier work.
Series [26] has as its system A/Thailand/2(Kan-1)/16/2004 (H5N1). Briefly: microbe, parasite or virus in culture. Type of series: cell-based. The settings on record: Influenza A virus, H5N1, MDCK, read-out: IC90, VYR Assay.
For series [27] the test system is unchanged. Briefly: microbe, parasite or virus in culture. Conditions: Influenza A virus, H5N1, MDCK, read-out: IC50, Visual Assay.
Series [28] has the same test system. The series is described as follows: microbe, parasite or virus in culture. Conditions: Influenza A virus, H5N1, MDCK, read-out: IC50, Neutral Red Uptake Assay.
For series [29], the system named is influenza viruses. Briefly: microbe, parasite or virus in culture. The series is classed as cell-based, influenza A and B viruses. Conditions: Influenza A virus, MDCK, read-out: IC50, all viruses tested.
Series [30] has as its system A/Hong Kong/213/2003 (H5N1). The series is described as follows: microbe, parasite or virus in culture. The settings on record: Influenza A virus, H5N1, MDCK, read-out: IC50, Neutral Red Uptake Assay.
The subject of series [31] is A/Thailand/2(Kan-1)/16/2004 (H5N1). This is another data set of the same source.
Series [32] deals with A/Hong Kong/213/2003 (H5N1). This is another data set of the same source.
Series [33] deals with A/Hong Kong/213/2003 (H5N1). The series is described as follows: microbe, parasite or virus in culture. The settings on record: Influenza A virus, H5N1, MDCK, read-out: IC50, Visual Assay.

`Nc1ccn([C@@H]2O[C@H](CO)[C@@H](O)C2(F)F)c(=O)n1` [2’-deoxy-2’, 2’-difluorocytidine, reference compound]: the IC50 in [1] was 0.16 µM; in [2], 0.13 µM; in [8], 0.21 µM; in series [9], less than 0.032 µM; in series [13], less than 0.32 µM; in series [15] it was less than 0.032 µM. Besides, the IC50 in [18] is 0.18 µM; in [19] it was less than 0.32 µM. Further, the “SI (CC50/IC50), Visual Assay” value is more than 1400 in series [3], more than 3100 in [4], more than 1700 in [6] and more than 3100 in series [10]. The IC90 in [5] stood at 0.03 µM; in series [16], 0.32 µM; in series [20], 1.7 µM. Moreover, the figures for the “SI (CC50/IC50), Neutral Red Uptake Assay” value in [7], in series [12] and in series [17] were more than 440, more than 3100 and more than 500, respectively. For the same molecule, the “Tolerability in uninfected mice” value in series [11] is “well tolerated”. The molecule further showed a CC50 in series [14] of 1.1 to 280 µM.

Take `Nc1ccn([C@@H]2O[C@H](CO)[C@@H](O)[C@H]2F)c(=O)n1` [2’-deoxy-2’-fluorocytidine, 2'-deoxy-2'-fluorocytidine]: the IC50 in series [1] is 14 µM; in [2], 1 µM; in [8], 0.91 µM; in series [27], 0.16 ± 0.04 µM; in series [28], 0.72 ± 0.51 µM; in [29] it was less than 15 µM. Moreover, the IC50 in series [13] was found to be 0.21 µM; in series [30], 0.27 ± 0.14 µM; in series [18], 3.2 µM; in series [19] it was 0.25 µM; in series [33], 0.05 ± 0.01 µM. For the same molecule, the “SI (CC50/IC50), Visual Assay” value in [3] is listed as more than 100; in [6], more than 400; in [24] it was more than 1954 ± 553; in series [31], more than 676 ± 204. The IC90 in series [21] came out at 1.54 µM; in series [26] it was 0.69 µM; in series [16], 2.9 µM; in [20], 2.1 µM. Further, the “SI (CC50/IC50), Neutral Red Uptake Assay” value is more than 251 ± 249 in series [22], more than 71 in [7], more than 29 in series [17] and more than 447 ± 216 in series [32]. In addition, the Live/Total in [23] is 5/10 and 4/10 and 0/10. The “Mean Day of Death ± SD” value in series [23] was 7.8 ± 1.3 days and 8.9 ± 1.2 days and 9.3 ± 2.1 days. In addition, the “Effect on virus lung titers in the mouse model” value in [25] is reported as “did not reduce virus lung titers”.
